Data taken from the NIST ThermoML archive (doi:10.1016/j.jct.2012.10.012).
Several values for one entry are separate records, joined by “and”; a condition that tells them apart may be missing. Equal entries are not always repeated. Numbers after ± are expanded uncertainties.

Conditions: Crystal, Calculated from knudsen effusion weight loss

SMILES: CC1NC(=O)C(C)NC1=O (centres undefined) [3,6-dimethyl-2,5-piperazinedione]
- vapor or sublimation pressure (388.13 K): 0.000116 ± 6e-06 kPa and 0.000126 ± 6e-06 kPa
- vapor or sublimation pressure (390.16 K): 0.000142 ± 7e-06 kPa and 0.000149 ± 7e-06 kPa and 0.00014 ± 7e-06 kPa
- vapor or sublimation pressure (392.15 K): 0.000171 ± 9e-06 kPa and 0.000179 ± 9e-06 kPa
- vapor or sublimation pressure (394.13 K): 0.000212 ± 1.1e-05 kPa and 0.000216 ± 1.1e-05 kPa
- vapor or sublimation pressure (396.14 K): 0.00026 ± 1.3e-05 kPa and 0.000247 ± 1.2e-05 kPa and 0.000267 ± 1.3e-05 kPa
- vapor or sublimation pressure (398.15 K): 0.000309 ± 1.5e-05 kPa and 0.000298 ± 1.5e-05 kPa and 0.000325 ± 1.6e-05 kPa
- vapor or sublimation pressure (400.13 K): 0.000387 ± 1.9e-05 kPa and 0.000371 ± 1.9e-05 kPa and 0.000388 ± 1.9e-05 kPa
- vapor or sublimation pressure (402.13 K): 0.000454 ± 2.3e-05 kPa and 0.000436 ± 2.2e-05 kPa and 0.000463 ± 2.3e-05 kPa
- vapor or sublimation pressure (404.15 K): 0.000543 ± 2.7e-05 kPa and 0.000563 ± 2.8e-05 kPa
- vapor or sublimation pressure (406.14 K): 0.000696 ± 3.5e-05 kPa and 0.000677 ± 3.4e-05 kPa and 0.000693 ± 3.5e-05 kPa
- vapor or sublimation pressure (408.14 K): 0.000821 ± 4.1e-05 kPa and 0.000818 ± 4.1e-05 kPa and 0.000785 ± 3.9e-05 kPa
- vapor or sublimation pressure (410.15 K): 0.000977 ± 4.9e-05 kPa and 0.000955 ± 4.8e-05 kPa and 0.000927 ± 4.6e-05 kPa

SMILES: O=C1CNC(=O)CN1 [2,5-diketopiperazine]
- vapor or sublimation pressure (419.16 K): 0.000101 ± 5e-06 kPa and 9.91e-05 ± 5e-06 kPa and 9.65e-05 ± 4.8e-06 kPa
- vapor or sublimation pressure (421.11 K): 0.000118 ± 6e-06 kPa and 0.000119 ± 6e-06 kPa and 0.000114 ± 6e-06 kPa
- vapor or sublimation pressure (423.15 K): 0.00014 ± 7e-06 kPa and 0.000137 ± 7e-06 kPa and 0.000141 ± 7e-06 kPa
- vapor or sublimation pressure (425.16 K): 0.000168 ± 8e-06 kPa and 0.000156 ± 8e-06 kPa and 0.000162 ± 8e-06 kPa
- vapor or sublimation pressure (427.1 K): 0.000196 ± 1e-05 kPa and 0.000188 ± 9e-06 kPa and 0.000195 ± 1e-05 kPa
- vapor or sublimation pressure (429.14 K): 0.000232 ± 1.2e-05 kPa and 0.000226 ± 1.1e-05 kPa and 0.000236 ± 1.2e-05 kPa
- vapor or sublimation pressure (431.17 K): 0.00029 ± 1.5e-05 kPa and 0.000257 ± 1.3e-05 kPa and 0.000273 ± 1.4e-05 kPa
- vapor or sublimation pressure (433.11 K): 0.00033 ± 1.7e-05 kPa and 0.00032 ± 1.6e-05 kPa and 0.000347 ± 1.7e-05 kPa
- vapor or sublimation pressure (435.15 K): 0.000382 ± 1.9e-05 kPa and 0.00038 ± 1.9e-05 kPa and 0.00039 ± 2e-05 kPa
- vapor or sublimation pressure (437.19 K): 0.00047 ± 2.4e-05 kPa and 0.000459 ± 2.3e-05 kPa
- vapor or sublimation pressure (439.11 K): 0.000548 ± 2.7e-05 kPa and 0.000519 ± 2.6e-05 kPa and 0.00052 ± 2.6e-05 kPa
- vapor or sublimation pressure (441.16 K): 0.000646 ± 3.2e-05 kPa and 0.000627 ± 3.1e-05 kPa and 0.000626 ± 3.1e-05 kPa
